Measurements taken from US20130096119A1, “Isoquinolin-3-Ylurea Derivatives” (priority 2010, published 2013).
In brackets after ≈: the same amount, converted by molar mass.

Test system: S. pneumoniae ATCC 49619
Assay: Minimal inhibitory concentration (MIC) by microdilution method (CLSI M7-A7)
Assay type: cell-based, Streptococcus pneumoniae
Settings: for MIC: Streptococcus pneumoniae, ATCC49619, cation-adjusted Mueller-Hinton Broth supplemented with 3% (v/v) lysed horse blood; for MIC for S. pneumoniae ATCC 49619: cation-adjusted Mueller-Hinton Broth supplemented with 3% (v/v) lysed horse blood
Protocol: Minimal inhibitory concentrations (MICs; mg/l) were determined in cation-adjusted Mueller-Hinton Broth (supplemented with 3% (v/v) lysed horse blood for testing Streptococcus pneumoniae) by a microdilution method following the description given in “Methods for Dilution Antimicrobial Susceptibility Tests for Bacteria that Grow Aerobically”, Approved standard, 7th ed., Clinical and Laboratory Standards Institute (CLSI) Document M7-A7, Wayne, Pa., USA, 2006.

With `CCNC(=O)Nc1cc2cccc(Nc3ccnc(OC)c3)c2cn1` [Example 180, 1-ethyl-3-[8-(2-methoxy-pyridin-4-ylamino)-isoquinolin-3-yl]-urea] the MIC was 4 µg/mL (≈ 11.9 µM).
Work on `CCNC(=O)Nc1cc2cc(-c3cscc3C)cc(C)c2cn1` [Example 80, 1-ethyl-3-[8-methyl-6-(4-methyl-thiophen-3-yl)-isoquinolin-3-yl]-urea] yielded an MIC of 16 µg/mL (≈ 49.2 µM).
Work on `CCNC(=O)Nc1cc2c(-c3ccc(CO)cc3)ccc(Nc3cccc(C(=O)N(C)C)c3)c2cn1` [Example 251, 3-[3-(3-ethyl-ureido)-5-(4-hydroxymethyl-phenyl)-isoquinolin-8-ylamino]-N,N-dimethyl-benzamide] yielded an MIC of 1 µg/mL (≈ 2.07 µM).
`CCNC(=O)Nc1cc2cc(NCc3ccccc3)cc(Nc3cccnc3)c2cn1` [Example 239, 1-[6-benzylamino-8-(pyridin-3-ylamino)-isoquinolin-3-yl]-3-ethyl-urea] was tested, and the MIC was 0.5 µg/mL (≈ 1.21 µM).
With `CCNC(=O)Nc1cc2cc(-c3ccc4ccccc4c3)cc(C)c2cn1` [Example 79, 1-ethyl-3-(8-methyl-6-naphthalen-2-yl-isoquinolin-3-yl)-urea] the MIC was 1 µg/mL (≈ 2.81 µM).
`CCNC(=O)Nc1cc2c(-c3cccnc3)ccc(C)c2cn1` [Example 50, 1-ethyl-3-(8-methyl-5-pyridin-3-yl-isoquinolin-3-yl)-urea] was tested, and the MIC was 8 µg/mL (≈ 26.1 µM).
Molecule `CCCNc1cc(Nc2cccnc2)c2cnc(NC(=O)NCC)cc2c1` [Example 238, 1-ethyl-3-[6-propylamino-8-(pyridin-3-ylamino)-isoquinolin-3-yl]-urea] has an MIC of 0.5 µg/mL (≈ 1.37 µM).
For `CCNC(=O)Nc1cc2cc(NCc3ccccc3)cc(C)c2cn1` [Example 58, 1-(6-benzylamino-8-methyl-isoquinolin-3-yl)-3-ethyl-urea], the MIC was 8 µg/mL (≈ 23.9 µM).
With `CCNC(=O)Nc1cc2c(N3CCN(C)CC3)ccc(Nc3cccnc3)c2cn1` [Example 277, 1-ethyl-3-[5-(4-methyl-piperazin-1-yl)-8-(pyridin-3-ylamino)-isoquinolin-3-yl]-urea] the MIC was 2 µg/mL (≈ 4.93 µM).
`CCNC(=O)Nc1cc2c(F)c(-c3cnc4ccccc4c3)cc(C)c2cn1` [Example 143, 1-ethyl-3-[5-fluoro-8-methyl-6-(quinolin-3-yl)-isoquinolin-3-yl]-urea] showed an MIC of 0.125 µg/mL (≈ 0.334 µM).
In the case of `CCNC(=O)Nc1cc2c(-c3ccncc3)ccc(-c3ccncc3)c2cn1` [Example 72, 1-(5,8-di-pyridin-4-yl-isoquinolin-3-yl)-3-ethyl-urea], the MIC is reported as 2 µg/mL (≈ 5.41 µM).
Molecule `CCNC(=O)Nc1cc2cccc(Nc3ccc(C#N)cc3)c2cn1` [Example 174, 1-[8-(4-cyano-phenylamino)-isoquinolin-3-yl]-3-ethyl-urea] has an MIC of 2 µg/mL (≈ 6.04 µM).
Work on `CCNC(=O)Nc1cc2cccc(Nc3ncccc3C)c2cn1.Cl` [Example 167, 1-ethyl-3-[8-(3-methyl-pyridin-2-ylamino)-isoquinolin-3-yl]-urea hydrochloride] yielded an MIC of 8 µg/mL.
`CCNC(=O)Nc1cc2c(F)c(-c3cccc(NC(C)=O)c3)cc(-c3cnc(OC)nc3)c2cn1` [Example 114, N-{3-[3-(3-ethyl-ureido)-5-fluoro-8-(2-methoxy-pyrimidin-5-yl)-isoquinolin-6-yl]-phenyl}-acetamide] was tested, and the MIC was 0.5 µg/mL (≈ 1.05 µM).
In the case of `CCNC(=O)Nc1cc2cc(NC(=O)c3cccc(N(C)C)c3)cc(Nc3cccnc3)c2cn1` [Example 241, 3-dimethylamino-N-[3-(3-ethyl-ureido)-8-(pyridin-3-ylamino)-isoquinolin-6-yl]-benzamide], the MIC is reported as ≤ 0.031 µg/mL.
Molecule `CCNC(=O)Nc1cc2c(-c3cccc(O)c3)ccc(C)c2cn1` [Example 68, 1-ethyl-3-[5-(3-hydroxy-phenyl)-8-methyl-isoquinolin-3-yl]-urea] has an MIC of 4 µg/mL (≈ 12.4 µM).
Molecule `CCNC(=O)Nc1cc2cccc(Nc3cccc(OC)c3)c2cn1` [Example 168, 1-ethyl-3-[8-(3-methoxy-phenylamino)-isoquinolin-3-yl]-urea] has an MIC of 0.5 µg/mL (≈ 1.49 µM).
`CCNC(=O)Nc1cc2cccc(NC(=O)c3ccccc3)c2cn1` [Example 70, N-[3-(3-ethyl-ureido)-isoquinolin-8-yl]-benzamide] gave an MIC of 16 µg/mL (≈ 47.8 µM).
`CCNC(=O)Nc1cc2c(-c3ccc(C(=O)N(C)C)cc3)ccc(C)c2cn1` [Example 5, 4-[3-(3-ethyl-ureido)-8-methyl-isoquinolin-5-yl]-N,N-dimethyl-benzamide] gave an MIC of 1 µg/mL (≈ 2.66 µM).
`CCNC(=O)Nc1cc2cc(-c3ccc4c(c3)OCO4)cc(C)c2cn1` [Example 77, 1-(6-(benzo[1,3]dioxol-5-yl)-8-methyl-isoquinolin-3-yl)-3-ethyl-urea] gave an MIC of 1 µg/mL (≈ 2.86 µM).
`CCNC(=O)Nc1cc2cccc(CNc3ccccn3)c2cn1.Cl` [Example 263, 1-ethyl-3-[8-(pyridin-2-ylaminomethyl)-isoquinolin-3-yl]-urea hydrochloride] was tested, and the MIC was 4 µg/mL.
`CCNC(=O)Nc1cc2cccc(Nc3cccc(C(=O)NCc4ccccc4)c3)c2cn1.Cl` [Example 201, N-benzyl-3-[3-(3-ethyl-ureido)-isoquinolin-8-ylamino]-benzamide hydrochloride] gave an MIC of 2 µg/mL.
`CCNC(=O)Nc1cc2c(-c3ccnc(N)c3)ccc(C)c2cn1` [Example 45, 1-[5-(2-amino-pyridin-4-yl)-8-methyl-isoquinolin-3-yl]-3-ethyl-urea] was tested, and the MIC was 2 µg/mL (≈ 6.22 µM).
`CCNC(=O)Nc1cc2c(-c3ccc(CO)cc3)ccc(C)c2cn1` [Example 34, 1-ethyl-3-[5-(4-hydroxymethyl-phenyl)-8-methyl-isoquinolin-3-yl]-urea] was tested, and the MIC was 2 µg/mL (≈ 5.96 µM).
`CCNC(=O)Nc1cc2c(-c3ccncn3)ccc(Nc3ccc(C)nc3)c2cn1` [Example 287, 1-ethyl-3-[8-(6-methyl-pyridin-3-ylamino)-5-pyrimidin-4-yl-isoquinolin-3-yl]-urea] was tested, and the MIC was 0.25 µg/mL (≈ 0.626 µM).
With “1-(8-chloro-5-pyrimidin-4-yl-isoquinolin-3-yl)-3-ethyl-urea [Example 289]” the “MIC for S. pneumoniae ATCC 49619” value was 2 µg/mL.
In the case of `CCNC(=O)Nc1cc2c(-c3ccc(CO)nc3)ccc(C)c2cn1` [Example 8, 1-ethyl-3-[5-(6-hydroxymethyl-pyridin-3-yl)-8-methyl-isoquinolin-3-yl]-urea], the MIC is reported as 4 µg/mL (≈ 11.9 µM).
`CCNC(=O)Nc1cc2cc(-c3ccco3)cc(C)c2cn1` [Example 78, 1-ethyl-3-(6-furan-2-yl-8-methyl-isoquinolin-3-yl)-urea] was tested, and the MIC was 2 µg/mL (≈ 6.77 µM).
For `CCNC(=O)Nc1cc2cc(NCc3ccc(NC(C)=O)cc3)cc(C)c2cn1` [Example 137, N-(4-{[3-(3-ethyl-ureido)-8-methyl-isoquinolin-6-ylamino]-methyl}-phenyl)-acetamide], the MIC was 8 µg/mL (≈ 20.4 µM).
Molecule `CCNC(=O)Nc1cc2cc(NC(=O)c3ccccc3)ccc2cn1` [Example 52, N-[3-(3-ethyl-ureido)-isoquinolin-6-yl]-benzamide] has an MIC of 2 µg/mL (≈ 5.98 µM).
Work on `CCNC(=O)Nc1cc2c(F)c(-c3cncc(C)c3)cc(C)c2cn1` [Example 141, 1-ethyl-3-[5-fluoro-8-methyl-6-(5-methylpyridin-3-yl)isoquinolin-3-yl]-urea] yielded an MIC of 0.5 µg/mL (≈ 1.48 µM).
`CCNC(=O)Nc1cc2cccc(CNc3cc(C)ns3)c2cn1` [Example 192, 1-ethyl-3-{8-[(3-methyl-isothiazol-5-ylamino)-methyl]-isoquinolin-3-yl}-urea] gave an MIC of 2 µg/mL (≈ 5.86 µM).
For “N-{1-[3-(3-ethyl-ureido)-8-methyl-isoquinolin-6-yl]-phenyl}-acetamide [Example 18]”, the “MIC for S. pneumoniae ATCC 49619” value was 0.25 µg/mL.
`CCNC(=O)Nc1cc2cccc(Nc3cccc(S(N)(=O)=O)c3)c2cn1` [Example 171, 3-[3-(3-ethyl-ureido)-isoquinolin-8-ylamino]-benzenesulfonamide] was tested, and the MIC was 2 µg/mL (≈ 5.19 µM).
